Read-outs that look alike come from different tables or passages of the source.

The values that follow come from US8003783B2, “17B-hydroxysteroid dehydrogenase inhibitors” (Sterix Limited, priority 2004, dated 2011).

One assay has as its target T1, 17β-HSD2 (Homo sapiens, UniProt P37059).
T1 construct: was measured in intact cell monolayers of T47D and MDA-MB-231 breast cancer cells respectively; endogenous in cells; host or cells: MDA-MB-231 human breast cancer cells
T1 sequence (P37059 1-387): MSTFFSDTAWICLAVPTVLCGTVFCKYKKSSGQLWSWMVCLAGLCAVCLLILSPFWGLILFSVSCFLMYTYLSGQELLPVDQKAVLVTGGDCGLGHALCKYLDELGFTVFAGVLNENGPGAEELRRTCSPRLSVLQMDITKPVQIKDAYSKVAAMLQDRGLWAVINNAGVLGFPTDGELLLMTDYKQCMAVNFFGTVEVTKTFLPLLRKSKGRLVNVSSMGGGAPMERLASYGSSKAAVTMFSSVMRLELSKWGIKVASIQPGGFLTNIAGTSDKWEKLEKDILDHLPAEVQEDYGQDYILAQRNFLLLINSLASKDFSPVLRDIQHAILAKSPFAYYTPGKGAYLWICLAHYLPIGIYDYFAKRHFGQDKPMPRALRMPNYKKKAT
Put plainly: 17β-HSD Type II activity in MDA-MB-231 cells (E2→E1). The class given is cell-based.

In a further assay the target is T2, 17β-HSD1 (Homo sapiens, UniProt P14061).
T2 construct: was measured in intact cell monolayers of T47D and MDA-MB-231 breast cancer cells respectively; endogenous in cells; host or cells: T-47D human breast cancer cells
T2 sequence (P14061 1-328): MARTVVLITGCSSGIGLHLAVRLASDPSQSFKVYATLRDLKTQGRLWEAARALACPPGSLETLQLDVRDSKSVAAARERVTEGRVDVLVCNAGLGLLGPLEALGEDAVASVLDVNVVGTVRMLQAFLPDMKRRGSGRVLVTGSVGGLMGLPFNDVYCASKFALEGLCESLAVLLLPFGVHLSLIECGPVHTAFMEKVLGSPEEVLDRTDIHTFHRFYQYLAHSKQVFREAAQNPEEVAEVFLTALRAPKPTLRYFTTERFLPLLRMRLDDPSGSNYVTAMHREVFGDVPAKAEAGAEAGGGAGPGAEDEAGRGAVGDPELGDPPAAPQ
Put plainly: 17β-HSD Type I activity in T-47D cells (E1→E2). Particulars: T-47D cells, E1→E2; for inhibition at 10 µM: T47D; for IC50: read-out: IC50 (17β-HSD1). It is filed as cell-based.

Where [1] appears, read: 10 μM, MDA-MB-231 cells, E2→E1, read-out: % inhibition of 17β-HSD2 @ 10 μM.
Setting [2] is: 10 μM, read-out: % inhibition of 17β-HSD1 @ 10 μM.
Setting [3] is: MDA-MB-231, read-out: % inhibition of 17β-HSD2 @ 10 μM.
The mark [4] stands for this setting: read-out: % inhibition of 17β-HSD1 @ 10 μM, 10 μM.

Consider `C[C@]12CCC3c4ccc(O)cc4CCC3C1CC1C(C(F)(F)F)=NNC12O` (some centres unmarked) [compound 947], for which the inhibition at 10 µM worked out at 2% at 17β-HSD2 (setting [1]) and 83% on 17β-HSD1 (setting [2]).

For `COCCNC(=O)CC1CC2C3CCc4cc(O)ccc4C3CC[C@]2(C)C1=O` (some centres unmarked) [compound 689], the values for the inhibition at 10 µM on 17β-HSD2 (setting [1]) and on 17β-HSD1 (setting [2]) were 8% and 53%, respectively.

Turning to `CN(C)c1ccc(/C=C2\CC3C4CCc5cc(O)ccc5C4CC[C@]3(C)[C@H]2O)cc1` (stereo in doubt) [compound 511, 16-(4-Dimethylamino-benzylidene)-13-methyl-7,8,9,11,12,13,14,15,16,17-decahydro-6H-cyclopenta[a]phenanthrene-3,17-diol], the inhibition at 10 µM on 17β-HSD2 (setting [1]) was determined as 81%; on 17β-HSD1 (setting [2]), 72%. This compound also showed an IC50 on 17β-HSD2 (MDA-MB-231 cells, E2→E1) of 5400 nM.

Consider `C[C@]12CCC3c4ccc(O)cc4CCC3C1Cc1c2n[nH]c1C(=O)NCc1ccccn1` (some centres unmarked) [compound 915], for which the inhibition at 10 µM stood at 9% on 17β-HSD2 (setting [3]) and 93% at 17β-HSD1 (setting [4]). Further, at 17β-HSD1, the IC50 stood at 880 nM.

As to `COc1cc2c(cc1O)CCC1C2CC[C@]2(C)C(=O)C(C#N)CC12` (some centres unmarked) [compound 208], the inhibition at 10 µM at 17β-HSD2 (setting [1]) was 4%; on 17β-HSD1 (setting [2]), 35%. Further, the “% inhibition of 17β-HSD1 @ 10 μM” value on 17β-HSD1 (10 μM) is 31%.

In the case of `CNC(=O)CC1CC2C3CCc4cc(O)ccc4C3CC[C@]2(C)C1=O` (some centres unmarked) [compound 745], the inhibition at 10 µM at 17β-HSD2 (setting [1]) amounted to 3.5%; on 17β-HSD1 (setting [2]), 90%. Moreover, the IC50 on 17β-HSD1 worked out at 1500 nM.

For the compound `C[C@]12CCC3c4ccc(O)cc4CCC3C1CC(CC(=O)NCc1cccnc1)C2=O` (some centres unmarked) [compound 670], the inhibition at 10 µM at 17β-HSD2 (setting [1]) is 26%; on 17β-HSD1 (setting [2]), 95%. For the same compound, at 17β-HSD1, the IC50 turned out to be 33 nM.

`COCCn1cc2c(n1)[C@@]1(C)CCC3c4ccc(O)cc4CCC3C1C2` (some centres unmarked) [compound 808]: the inhibition at 10 µM at 17β-HSD2 (setting [1]) is 48%; at 17β-HSD1 (setting [2]), 95%. In addition, at 17β-HSD1, the 50% inhibitory concentration (IC50) is 530 nM.

As for `C[C@]12CCC3c4ccc(O)cc4CCC3C1CC(Cc1ccccn1)[C@@H]2O` (some centres unmarked) [compound 567, 13-Methyl-16-pyridin-2-ylmethyl-7,8,9,11,12,13,14,15,16,17-decahydro-6H-cyclopenta[□]phenanthrene-3-17-diol], the inhibition at 10 µM at 17β-HSD2 (setting [1]) was 11%; at 17β-HSD1 (setting [2]), 88%.

As for `COc1cc(/C=C2\CC3C4CCc5cc(OS(N)(=O)=O)ccc5C4CC[C@]3(C)[C@H]2O)cc(OC)c1OC` (some centres unmarked) [compound 693], the inhibition at 10 µM on 17β-HSD2 (setting [1]) stood at 10%; on 17β-HSD1 (setting [2]), 13%.

For the compound `CN1CCN(C(=O)C2CC3C4CCc5cc(O)ccc5C4CC[C@]3(C)[C@H]2O)CC1` (some centres unmarked) [compound 799], the inhibition at 10 µM was -16% at 17β-HSD2 (setting [1]) and 74% on 17β-HSD1 (setting [2]).

Consider `CN(C)CCCNC(=O)CC1CC2C3CCc4cc(O)ccc4C3CC[C@]2(C)C1=O` (some centres unmarked) [compound 688], for which the inhibition at 10 µM was 13% on 17β-HSD2 (setting [1]) and 36% at 17β-HSD1 (setting [2]).

Regarding `CC(C)(C)/C=C1\CC2C3CCc4cc(O)ccc4C3CC[C@]2(C)C1=O` (some centres unmarked) [compound 748], the inhibition at 10 µM on 17β-HSD2 (setting [1]) turned out to be 31%; on 17β-HSD1 (setting [2]), 82%.

Consider `C[C@]12CCC3c4ccc(O)cc4CCC3C1CC(CC(=O)NCCc1ccccn1)C2=O` (some centres unmarked) [compound 691], for which the inhibition at 10 µM was found to be 14% on 17β-HSD2 (setting [1]) and 58% at 17β-HSD1 (setting [2]).

For `C[C@]12CCC3c4ccc(O)cc4CCC3C1Cc1c2n[nH]c1C(=O)NCc1cccnc1` (some centres unmarked) [compound 860, 2-Hydroxy-6a-methyl-4b,5,6,6a,8,10,10a,10b,11,12-decahydro-7,8-diaza-pentaleno[2,1-a]phenanthrene-9-carboxylic acid (pyridin-3-ylmethyl)-amide], the inhibition at 10 µM was 28% on 17β-HSD2 (setting [1]) and 92% on 17β-HSD1 (setting [2]). The IC50 at 17β-HSD1 stood at 780 nM.

`C[C@]12CCC3c4ccc(O)cc4CCC3C1C/C(=C\c1cccnc1)C2=O` (some centres unmarked) [compound 320]: the inhibition at 10 µM was determined as 10% at 17β-HSD2 (setting [1]) and 44% at 17β-HSD1 (setting [2]).

As to `C[C@]12CCC3c4ccc(O)cc4CCC3C1CC(CC(=O)NCc1ccccn1)C2=O` (some centres unmarked) [compound 669], the inhibition at 10 µM on 17β-HSD2 (setting [3]) was 7%; at 17β-HSD1 (setting [4]), 82%.

As a reminder, the inhibition is the change of the read-out against control, counted positive when it falls. For orientation: IC50 means the concentration at which inhibition is half-maximal.
